Test results taken from patent US20260041683A1, “Compounds with Anti-Acinetobacter Baumannii Activity” (University of Kentucky Research Foundation, priority 2022, published 2026).
≈ marks a conversion by molar mass, not a printed value.

Experiments:
[1] = system: all 43 strains of A. baumannii (41 CDC strains and 2 ATCC strains); assay: MIC value statistics for all A. baumannii strains; type: cell-based, Acinetobacter baumannii; settings: of 43 A. baumannii strains
Procedure: All bacterial strains listed above were stored at −80° C. All strains were streaked on Mueller-Hinton (MH) plates and allowed to grow at 37° C. overnight. Enough colonies were scraped from the plate and suspended in MH broth with vortexing to reach an attenuance at 600 nm (OD600) of ˜0.5. The resulting culture was diluted 1:1000 and added to the prepared serially doubly diluted compound solutions in 96-well plates. […]. For each row, one well was reserved for sterile control (which consisted of 200 μL of MH medium) and another well was reserved for growth control (which consisted of 100 μL of MH medium seeded with 100 μL of bacterial culture).
Having established that the observed activity is selective to A. baumannii, all synthesized compounds were tested against a panel of antibiotic resistant A. baumannii from the Antimicrobial Resistant (AR) Isolate Bank from the CDC along with strains I and J (Table Si). […]. Based on this statistical analysis, the best compound is 5e followed closely by 3e.

Ab ATCC 19606 (strain I) = assay: MIC determination (double dilution, Mueller-Hinton broth); type: cell-based, Acinetobacter baumannii; settings: Acinetobacter baumannii, ATCC19606; Table 1; control strain; read-out: MIC Ab ATCC 19606
Procedure: All bacterial strains listed above were stored at −80° C. All strains were streaked on Mueller-Hinton (MH) plates and allowed to grow at 37° C. overnight. […] The resulting culture was diluted 1:1000 and added to the prepared serially doubly diluted compound solutions in 96-well plates. For M. smegmatis, a 1:100 dilution of the bacteria was done in MH. All MIC values were determined using 96-well plates with low evaporation seals at least in duplicate. For each row, one well was reserved for sterile control (which consisted of 200 μL of MH medium) and another well was reserved for growth control (which consisted of 100 μL of MH medium seeded with 100 μL of bacterial culture).
(§1) Minimum inhibitory concentrations (MIC) of all compounds from the series were measured in liquid cultures of different Ab strains by a double-dilution method in Mueller-Hinton broth. Initially, the activity of all 46 compounds against Ab ATCC 19606 (a control strain) and Ab ATCC BAA1605 (a multidrug-resistant strain) (Table 1; data shown for 27 representative compounds) was measured.

[2] = system: Ab ATCC BAA1605 (strain J, multidrug-resistant); assay: MIC determination; type: cell-based; settings: Acinetobacter baumannii; Table 1; multidrug-resistant strain; read-out: MIC Ab ATCC BAA 1605
Procedure: All bacterial strains listed above were stored at −80° C. All strains were streaked on Mueller-Hinton (MH) plates and allowed to grow at 37° C. overnight. Enough colonies were scraped from the plate and suspended in MH broth with vortexing to reach an attenuance at 600 nm (OD600) of ˜0.5. The resulting culture was diluted 1:1000 and added to the prepared serially doubly diluted compound solutions in 96-well plates. For M. smegmatis, a 1:100 dilution of the bacteria was done in MH. All MIC values were determined using 96-well plates with low evaporation seals at least in duplicate. For each row, one well was reserved for sterile control (which consisted of 200 μL of MH medium) and another well was reserved for growth control (which consisted of 100 μL of MH medium seeded with 100 μL of bacterial culture).
as §1

Compound	number of compound/strain combinations with MIC value >64 μg/mL [1]	MIC (Ab ATCC 19606 (strain I))	MIC [2]	number of compound/strain combinations with MIC value 0.25 μg/mL [1]	number of compound/strain combinations with MIC value 0.5 μg/mL [1]	number of compound/strain combinations with MIC value 1 μg/mL [1]	number of compound/strain combinations with MIC value ≤0.125 μg/mL [1]	number of compound/strain combinations with MIC value 2 μg/mL [1]
O=C(NNC1CCCCC1)c1cnccn1 [Compound 9h]	43							
O=C(NNc1cccc(F)c1)c1cccnc1 [Compound 11a]		0.25 µg/mL (≈ 1.08 µM)	0.5 µg/mL (≈ 2.16 µM)	11	26	4	2	
O=C(NNc1ccc(Cl)cc1)c1cccnc1 [Compound 11e]				15	19	4	5	
O=C(NNc1cccc(F)c1)c1cnc2ccccc2n1 [Compound 13a]				6	19	15		3
CCC(=O)NNc1cccc(F)c1 [Compound 16a]				10	15	14	4	
CCOC(=O)CNNC(=O)c1ccc(F)cc1F [Compound 1g]	43							
CCOC(=O)CNNC(=O)c1cnccn1 [Compound 9g]	43							
O=C(NNc1cccc(F)c1)c1ccccc1 [Compound 10a]		0.25 µg/mL (≈ 1.09 µM)	0.5 µg/mL (≈ 2.17 µM)	19	17	1	6	
O=C(NNc1ccc(Cl)cc1)c1ncc(F)cc1F [Compound 7e]		0.125 µg/mL (≈ 0.441 µM)	0.125 µg/mL (≈ 0.441 µM)	28	7		8	
O=C(NNc1ccc(Cl)cc1)c1cnccn1 [Compound 9e]				8	19	15	1	
O=C(NNc1cccc(F)c1)c1ccc(Br)cn1 [Compound 4a]		0.5 µg/mL (≈ 1.61 µM)	0.5 µg/mL (≈ 1.61 µM)	2	8	19		14
O=C(NNc1ccc(Cl)cc1)c1cnc2ccccc2n1 [Compound 13e]		0.5 µg/mL (≈ 1.67 µM)	0.25 µg/mL (≈ 0.837 µM)	9	22	12		
O=C(NNc1cccc(F)c1)c1ccco1 [Compound 15a]				21	16		6	
O=C(NNc1cccc(F)c1)c1cccc(Br)n1 [Compound 6a]		0.5 µg/mL (≈ 1.61 µM)	0.5 µg/mL (≈ 1.61 µM)	4	16	19		4
O=C(NNC1CCCCC1)c1cccnc1 [Compound 11h]	43	> 64 µg/mL	> 64 µg/mL					
O=C(NNc1cccc(F)c1)c1cccc(F)n1 [Compound 5a]				1	8	25		9
CCOC(=O)CNNC(=O)c1ccc(F)cn1 [Compound 3g]	43	> 64 µg/mL	> 64 µg/mL					
O=C(NNc1cccc(F)c1)c1nc(F)ccc1F [Compound 8a]				11	12	18	2	
O=C(NNc1cccc(F)c1)c1ccc(F)cc1F [Compound 1a]				3	26	9	1	4
O=C(NNc1ccc(Cl)cc1)c1nc(F)ccc1F [Compound 8e]		0.125 µg/mL (≈ 0.441 µM)	0.0625 µg/mL (≈ 0.22 µM)	34	2		7	
O=C(NNC1CCCCC1)c1ccc(F)cc1F [Compound 1h]	43							
O=C(NNc1cccc(F)c1)c1ncc(F)cc1F [Compound 7a]				5	19	18	1	
O=C(NNc1cccc(F)c1)c1ccccn1 [Compound 2a]		2 µg/mL (≈ 8.65 µM)	0.5 µg/mL (≈ 2.16 µM)	10	18	10	2	3
O=C(NNc1cccc(F)c1)c1cc2ccccc2[nH]1 [Compound 14a]		0.25 µg/mL (≈ 0.928 µM)	0.25 µg/mL (≈ 0.928 µM)	13	25	5		
CCOC(=O)CNNC(=O)c1ccccn1 [Compound 2g]	43							
